Like-named read-outs stand apart in the source and are kept apart here.
Legend:
CYP3A4 = target: T1, CYP3A4 (Homo sapiens, UniProt P08684); test: Cytochrome P450 inhibition assay (midazolam hydroxylation); format: in vitro ADME; conditions: human, human liver microsomes, probe midazolam (hydroxylation to 1′-hydroxymidazolam), 10 μM test compound, midazolam at approximately its Km
T1 construct: pre-incubated with human liver microsomes and NADPH; from tissue; host or cells: human liver microsomes
Description: Compounds were tested for the potential to induce drug-drug interactions by inhibition of the cytochrome P450 3A4 isoform. The assay evaluated the metabolism of a specific marker substrate (CYP3A4, midazolam hydroxylation to 1′-hydroxymidazolam) in the presence or absence of 10 μM test compound. The concentration of the marker substrate was approximately its Km (Dixit et al., Biopharm. Drug Dispos. 2007, 28(5), 257-262). A specific inhibitor for the isoform was included in each run to validate the system. An appropriate positive control inhibitor was used. Mechanism-based inhibition was investigated where warranted using a classical method. To evaluate time-dependent inhibition, parallel samples may have been included where […] was pre-incubated with human liver microsomes and NADPH for 30 min prior to the addition of the P450 substrate. The percent inhibition of the pre-incubated and non-pre-incubated samples were compared as a preliminary evaluation of time-dependent inhibition.

OX1 = target: T2, OX1 (Homo sapiens, UniProt O43613); test: Orexin receptor cell-based functional assay, [Ca2+]i by FLIPR, CHO-OX1 cells; conditions: CHO-OX1 cells, EC90 of OXA
T2 construct: expressed in transfected cells; host or cells: CHO (CHO-OX1, kept under selection antibiotic)
T2 sequence (O43613 1-425): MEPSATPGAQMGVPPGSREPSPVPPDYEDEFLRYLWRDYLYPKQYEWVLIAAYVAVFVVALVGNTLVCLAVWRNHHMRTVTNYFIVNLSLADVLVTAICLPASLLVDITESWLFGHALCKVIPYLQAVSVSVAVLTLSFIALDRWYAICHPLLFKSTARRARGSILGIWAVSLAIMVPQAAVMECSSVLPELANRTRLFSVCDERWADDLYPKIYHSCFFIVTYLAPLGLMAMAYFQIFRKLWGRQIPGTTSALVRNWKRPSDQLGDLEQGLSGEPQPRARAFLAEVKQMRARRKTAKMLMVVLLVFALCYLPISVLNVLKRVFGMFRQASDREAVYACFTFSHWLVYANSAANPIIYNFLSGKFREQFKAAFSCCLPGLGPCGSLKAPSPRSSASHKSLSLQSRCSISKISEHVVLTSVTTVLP
Outline: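 Antagonist mode FLIPR calcium read in CHO-OX1 and CHO-OX2 lines. Test compounds, dosed 0.1 nM-10 μM, preincubated 30 min after 37° C dye loading with 2.5 mM probenecid (calcium4 for 30 min or calcium6 for 2 h).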

[1] = Table 2, read-out: IC50 Bioactivity OX1
[2] = [Ca2+]i by FLIPR, antagonist dose-range 0.1 nM-10 μM, read-out: OX1

T1 sequence (P08684 whole entry): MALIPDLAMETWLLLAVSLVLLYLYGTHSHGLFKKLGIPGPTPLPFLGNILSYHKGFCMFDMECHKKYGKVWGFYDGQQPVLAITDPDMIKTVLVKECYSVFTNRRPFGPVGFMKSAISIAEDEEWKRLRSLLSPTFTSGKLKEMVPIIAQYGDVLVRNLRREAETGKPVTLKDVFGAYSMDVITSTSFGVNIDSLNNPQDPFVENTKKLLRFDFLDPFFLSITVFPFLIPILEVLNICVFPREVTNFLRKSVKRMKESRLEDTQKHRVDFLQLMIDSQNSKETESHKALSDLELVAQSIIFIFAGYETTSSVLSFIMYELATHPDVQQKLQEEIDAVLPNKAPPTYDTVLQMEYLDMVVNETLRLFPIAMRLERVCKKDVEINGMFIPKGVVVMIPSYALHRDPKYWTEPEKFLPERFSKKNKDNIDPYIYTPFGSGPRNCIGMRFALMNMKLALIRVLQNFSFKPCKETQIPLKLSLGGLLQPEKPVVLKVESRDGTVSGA

Row | IC50 (OX1; [1]) [µM] | SMILES | other results
1 | 0.035 | O=C(NC[C@@H]1C[C@@H](F)CN1C(=O)c1ccccc1-c1ccccc1)c1cccc2cccnc12 [Example 128, N-(((2S,4R)-1-(Biphenylcarbonyl)-4-fluoropyrrolidin-2-yl)methyl)quinoline-8-carboxamide] | 
2 | 0.038 | Cc1ccc(-n2cncn2)c(C(=O)N2CCC[C@@H](C)[C@H]2CNc2ccc(C(F)(F)F)cn2)c1 (racemic) [Example 117, rac-cis-(3-Methyl-2-(((5-(trifluoromethyl)pyridin-2-yl)amino)methyl)piperidin-1-yl)(5-methyl-2-(1H-1,2,4-triazol-1-yl)phenyl)methanone] | 
3 | > 1 | Cc1ccc(-c2ccc(N3CCN(C)CC3)nc2)c(C(=O)N2CCC[C@@H](C)[C@H]2CNc2ccc(C(F)(F)F)cn2)c1 (racemic) [Example 110, rac-cis-(3-Methyl-2-(((5-(trifluoromethyl)pyridin-2-yl)amino)methyl)piperidin-1-yl)(5-methyl-2-(6-(4-methylpiperazin-1-yl)pyridin-3-yl)phenyl)methanone] | 

More lines, now with the values behind:

Row | SMILES | IC50 (OX1; [1]) [µM] | other results
4 | Cc1ccc(-c2cncs2)c(C(=O)N2CCC[C@@H](C)[C@H]2CNc2nc3cc(Cl)ccc3o2)c1 [Example A34, ((2S,3R)-2-(((5-Chlorobenzo[d]oxazol-2-yl)amino)methyl)-3-methylpiperidin-1-yl)(5-methyl-2-(thiazol-5-yl)phenyl)methanone] |  | inhibition at 10 µM (CYP3A4): 99%
5 | Cc1ccc(-c2cccnc2)c(C(=O)N2CCC[C@@H](C)[C@H]2CNc2nc3cc(Cl)ccc3o2)c1 [Example A31, ((2S,3R)-2-(((5-Chlorobenzo[d]oxazol-2-yl)amino)methyl)-3-methylpiperidin-1-yl)(5-methyl-2-(pyridin-3-yl)phenyl)methanone] |  | inhibition at 10 µM (CYP3A4): 98%
6 | Cc1cnc(NC[C@@H]2[C@H](C)CCCN2C(=O)c2nc(C)sc2-c2ccc(F)cc2)nc1 (racemic) [Example 83, rac-cis-(3-Methyl-2-(((5-methylpyrimidin-2-yl)amino)methyl)piperidin-1-yl)(5-(4-fluorophenyl)-2-methylthiazol-4-yl)methanone] | 0.03 | 
7 | CC1CCCC(CCOc2ccccc2)N1C(=O)c1ccccc1-c1ccccc1 (racemic) [Example 31, rac-Biphenyl-2-yl(2-methyl-6-(2-phenoxyethyl)piperidin-1-yl)methanone] | 0.01 | 
8 | Cc1cc2c(C(=O)NCC3CCCC(C)N3C(=O)c3nc(C)sc3-c3ccc(F)cc3)cccc2o1 (racemic) [Example 61, rac-N-((1-(5-(4-Fluorophenyl)-2-methylthiazole-4-carbonyl)-6-methylpiperidin-2-yl)methyl)-2-methylbenzofuran-4-carboxamide] | 0.007 | 
9 | Cc1ccc(-c2cnn(C)c2)c(C(=O)N2CCC[C@@H](C)[C@H]2COc2ccc(C(F)(F)F)cn2)c1 [Example A114, ((2S,3R)-3-Methyl-2-(((5-(trifluoromethyl)pyridin-2-yl)oxy)methyl)piperidin-1-yl)(5-methyl-2-(1-methyl-1H-pyrazol-4-yl)phenyl)methanone] |  | IC50 (OX1; [2]): > 1 µM
10 | CCc1cnc(NC[C@@H]2[C@H](C)CCCN2C(=O)c2nc(C)sc2-c2ccc(F)cc2)nc1 (racemic) [Example 16, rac-cis-(2-(((5-Ethylpyrimidin-2-yl)amino)methyl)-3-methylpiperidin-1-yl)(5-(4-fluorophenyl)-2-methylthiazol-4-yl)methanone] | 0.008 | 
11 | COC1CCC(CNC(=O)c2cccc3cccnc23)N(C(=O)c2nc(C)sc2-c2cccc(F)c2)C1 (racemic) [Example 50, N-((1-(5-(3-Fluorophenyl)-2-methylthiazole-4-carbonyl)-5-methoxypiperidin-2-yl)methyl)quinoline-8-carboxamide] | 0.007 | 
12 | Cc1nc(C(=O)N2C[C@H]3CCC[C@H]3C2COc2ccc(C(F)(F)F)cn2)c(-c2ccc(F)cc2)s1 (mixture of isomers) [Example 101, (5-(4-Fluorophenyl)-2-methylthiazol-4-yl)(1-(((5-(trifluoromethyl)pyridin-2-yl)oxy)methyl)hexahydrocyclopenta[c]pyrrol-2(1H)-yl)methanone] | 3 | 
13 | Cc1ccc(-n2cnc(C(F)(F)F)n2)c(C(=O)N2CCC[C@@H](C)[C@H]2CNc2nc3cc(Cl)ccc3o2)c1 [Example A64, ((2S,3R)-2-(((5-Chlorobenzo[d]oxazol-2-yl)amino)methyl)-3-methylpiperidin-1-yl)(5-methyl-2-(3-(trifluoromethyl)-1H-1,2,4-triazol-1-yl)phenyl)methanone] |  | IC50 (OX1; [2]): > 1 µM
14 | CN(C)C1CCC(CNC(=O)c2cccc3cccnc23)N(C(=O)c2ccccc2-c2ccccc2)C1 (racemic) [Example 41, N-((1-(Biphenylcarbonyl)-5-(dimethylamino)piperidin-2-yl)methyl)quinoline-8-carboxamide] | 1.5 | 
15 | CO[C@@H]1CCCN(C(=O)c2nc(C)sc2-c2ccc(F)cc2)[C@@H]1CNc1ncc(Cl)cn1 (racemic) [Example 93, rac-cis-(2-(((5-Chloropyrimidin-2-yl)amino)methyl)-3-methoxypiperidin-1-yl)(5-(4-fluorophenyl)-2-methylthiazol-4-yl)methanone] | 0.1 | 
16 | Cc1nc(C(=O)N2CCC[C@@H](C)[C@H]2CNc2ccnc(Cl)n2)c(-c2ccc(F)cc2)s1 (racemic) [Example 19, rac-cis-(2-(((2-Chloropyrimidin-4-yl)amino)methyl)-3-methylpiperidin-1-yl)(5-(4-fluorophenyl)-2-methylthiazol-4-yl)methanone] | 0.27 | 
17 | Cc1nc(C(=O)N2CC(N)CCC2CNC(=O)c2cccc3cccnc23)c(-c2cccc(F)c2)s1 (racemic) [Example 53, N-((5-Amino-1-(5-(3-fluorophenyl)-2-methylthiazole-4-carbonyl)piperidin-2-yl)methyl)quinoline-8-carboxamide] | 0.065 | 
18 | Cc1ccc(NC[C@@H]2[C@H](C)CCCN2C(=O)c2nc(C)sc2-c2ccc(F)cc2)nc1 (racemic) [Example 86, rac-cis-(3-Methyl-2-(((5-methylpyridin-2-yl)amino)methyl)piperidin-1-yl)(5-(4-fluorophenyl)-2-methylthiazol-4-yl)methanone] | 0.022 | 
19 | CNC1CCC(CNC(=O)c2cccc3cccnc23)N(C(=O)c2sc(C)nc2-c2ccccc2)C1 (racemic) [Example 45, N-((1-(2-Methyl-4-phenylthiazole-5-carbonyl)-5-(methylamino)piperidin-2-yl)methyl)quinoline-8-carboxamide] | < 10 | 
20 | Cc1nc(C(=O)N2CC(F)CCC2CNC(=O)c2cccc3cccnc23)c(-c2ccccc2)s1 (racemic) [Example 1, N-((5-Fluoro-1-(2-methyl-5-phenylthiazole-4-carbonyl)piperidin-2-yl)methyl)quinoline-8-carboxamide] | 0.001 | 
21 | Cc1nc(C(=O)N2CCC[C@@H](C)[C@H]2CNc2ccc(C(F)(F)F)cn2)c(-c2cccc(F)c2)s1 [Example A109, (5-(3-Fluorophenyl)-2-methylthiazol-4-yl)((2S,3R)-3-methyl-2-(((5-(trifluoromethyl)pyridin-2-yl)amino)methyl)piperidin-1-yl)methanone] |  | IC50 (OX1; [2]): < 0.01 µM
22 | C[C@@H]1CCCN(C(=O)c2c(-n3nccn3)ccc(F)c2F)[C@@H]1CNc1ccc(C(F)(F)F)cn1 [Example A336, (2,3-Difluoro-6-(2H-1,2,3-triazol-2-yl)phenyl)((2S,3R)-3-methyl-2-(((5-(trifluoromethyl)pyridin-2-yl)amino)m*ethyl)piperidin-1-yl)methanone] |  | IC50 (OX1; [2]): 0.01 µM
23 | O=C(NCC1CCC(F)CN1C(=O)c1ccccc1-c1ccccc1)c1cccc2cccnc12 (single isomer, unassigned) [Example 38, N-((1-(Biphenylcarbonyl)-5-fluoropiperidin-2-yl)methyl)quinoline-8-carboxamide] | 0.004 | 
24 | Cc1nc(C(=O)N2C[C@H]3CCC[C@H]3C2CNc2nc3ccccc3o2)c(-c2ccc(F)cc2)s1 (mixture of isomers) [Example 100, (1-((Benzo[d]oxazol-2-ylamino)methyl)hexahydrocyclopenta[c]pyrrol-2(1H)-yl)(5-(4-fluorophenyl)-2-methylthiazol-4-yl)methanone] | 0.008 | 
25 | Cc1nc(-c2ccccc2)c(C(=O)N2CC3CCCCC3C2CNC(=O)c2cccc3cccnc23)s1 (single isomer, unassigned) [Example 65] | > 2 | 

Reference: patent US9440982B2 (Eolas Therapeutics, Inc., priority 2012, dated 2016)
